Entries after “also recorded” stand apart in the source; their conditions may differ.
Key:
[1] = tested on: SK-BR-3, SK-OV-3, JIMT-1 and MCF7 cells; assay: Cell viability, all cells of Fig. 4d; format: cell-based; conditions: SK-BR-3, SK-OV-3, JIMT-1, MCF7; CellTiter Glo; n = 3 independent experiments
Experimental: (§1) Cells were seeded in a 96-well white opaque plate at a density of 5 × 10^3/well (CHO, ATCC, CCL-61) or 1 × 10^4/well (MCF7 (ATCC, HTB-22), SK-BR-3 (ATCC, HTB-30), SK-OV-3 (ATCC, HTB-77) or JIMT-1(Beyotime, C6453)). Cells were allowed to attach for 24 h at 37 °C and 5% CO2 in humidified atmosphere. Cells were then treated with serial dilutions of Tra-CAST, Tra-CAST-MMAE and SBA-MMAE or Tra-CASTi, Tra-CASTi-MMAE and DBCO-MMAE for 96 h (BT474, MCF7, SK-BR-3). Cell viability was determined using CellTiter Glo reagents (G7571) and was normalized to the control cells. Data was analyzed by Graphpad software, and the half-maximal effective concentration (EC50) value was calculated by fitting with the log(inhibitor) vs. response module.
10! […]
(§2) Our selected nanobody binds to human serum albumin (HSA)7, The functional impact of inserting CAST to nanobody was evaluated by measuring the affinity to human serum albumin using Biolayer Interferometry at room temperature. […]
Cells were seeded in a 96-well white opaque plate at a density of 5 × 10^3/well (CHO) or 1 × 10^4/well (MCF7, SK-BR-3, SK-OV-3 or JIMT-1). […] Cell viability was determined using CellTiter Glo reagents (G7571) and was normalized to the control cells. Data was analyzed by Graphpad software, and the half-maximal effective concentration (EC50) value was calculated by fitting with the log(inhibitor) vs. response module. […]

PBS = conditions: 95 °C, up to 1 hour
10 mM cysteine in PBS = conditions: 95 °C, up to 1 hour
mouse plasma = conditions: Male BALB/c mice, 37 °C, up to 144 h
fresh serum = conditions: Male BALB/c mice, 37 °C, up to 20 hours (table); 21 h (methods)
[2] = 20 mM glutathione, PBS (pH 7.4); conditions: 37 °C, up to 22 h
CHO, MCF7, SK-BR-3 cells = assay: Cell viability, all cell lines of Supplementary Fig. 38; format: cell-based; conditions: 96 h, CellTiter Glo
Experimental: as §1
Deconvolutedmass (Da) Deconvolutedmass (Da)
Supplementary Figure 37. ESI ion series/deconvolution MS spectra: reactions between […]
trastuzumab-CAST and 1C and SBA-MMAE. a. […]
as §2
Cells were seeded in a 96-well white opaque plate at a density of 5 × 10^3/well (CHO) or 1 × 10^4/well (MCF7, SK-BR-3, SK-OV-3 or JIMT-1). […] Cell viability was determined using CellTiter Glo reagents (G7571) and was normalized to the control cells. Data was analyzed by […]

Row | Substance | cleaved bond (fresh serum) | other results
1 | DBCO-PEG3-Glu-Val-Cit-PAB-MMAE [DBCO-MMAE] | – | toxicity towards all cells [1]: minimal toxicity
2 | DLAAEIAKHCG | – | fragment found (PBS): Maleimide hydrolysis byproduct, 1h; fragment found (10 mM cysteine in PBS): Maleimide hydrolysis byproduct, 1h; also recorded: SM:DLAAEIAKHCG, 1h
3 | Phenyl-PEG2-FFKKDDHAA | – | cleaved bond (mouse plasma): F-K, 18 h; also recorded: F-F, 48 h; fragment found (mouse plasma): Phenyl-PEG2-FFKK, 48 h
4 | Phenyl-PEG2-IAPDDHAA | – | not cleaved (mouse plasma): remained intact following incubation in plasma for 144 h
5 | Phenyl-PEG2-SPG-FFKKDDHAA | P-G, 3 hours; also recorded: F-K, 3 hours; also recorded: G-F, 3 hours | –
6 | Phenyl-PEG2-SPG-HAQDDHAA | P-G, 3 hours | –
7 | Phenyl-PEG2-SPG-IAPDDHAA | G-I, 3 hours; also recorded: D-D, 20 hours; also recorded: P-G, 20 hours | –
8 | Phenyl-PEG2-SPG-IAQDDHAA | G-I, 3 hours | –
9 | Phenyl-PEG2-SPG-IKAQDDHAA | I-K, 3 hours; also recorded: G-I, 3 hours; also recorded: A-Q, 3 hours; also recorded: P-G, 3 hours | –
10 | Phenyl-PEG2-SPG-INDPDDHAA | P-G, 3 hours; also recorded: G-I, 20 hours | –
11 | Phenyl-PEG2-SPG-KAQDDHAA | P-G, 3 hours; also recorded: G-K, 3 hours | –
12 | Phenyl-PEG2-SPG-LKQDDHAA | G-L, 3 hours | –
13 | Phenyl-PEG2-SPG-MEQDDHAA | G-M, 3 hours; also recorded: P-G, 3 hours | –
14 | Phenyl-PEG2-SPG-NAPDDHAA | G-N, 20 hours; also recorded: P-G, 20 hours | –
15 | Phenyl-PEG2-SPG-NAQDDHAA | G-N, 3 hours; also recorded: P-G, 3 hours | –
16 | Phenyl-PEG2-SPG-NEQDDHAA | P-G, 3 hours; also recorded: G-N, 20 hours | –
17 | Phenyl-PEG2-SPG-NKKDDHAA | G-N, 3 hours | –
18 | Phenyl-PEG2-SPG-SHAQDDHAA | G-S, 3 hours; also recorded: P-G, 3 hours | –
19 | Phenyl-PEG2-SPG-SKAQDDHAA | G-S, 3 hours; also recorded: P-G, 3 hours | –
20 | WCGIAPDDHAA [maleimide modified WCGIAPDDHAA] | – | fragment found [2]: released free peptide WCGIAPDDHAA, 22 h; also recorded: maleimide hydrolysis byproducts, 22 h
21 | WCGIAPDDHAA [maleimide-WCGIAPDDHAA] | – | fragment found [2]: WCGIAPDDHAA, 22 h
22 | styrylboronic acid-Val-Cit-PAB-monomethyl auristatin E [SBA-MMAE] | – | toxicity in all cell lines at the tested concentrations (CHO, MCF7, SK-BR-3 cells): displayed toxicity and could not effectively distinguish HER2-negative MCF7 cells or HER2-positive SK-BR-3 cells
